Results reported in PubChem BioAssay AID1963979 (Molecular Pharmacology Branch, DTP, NCI, 2024).
One block for each compound: values may come before it.

System: 361931-004-R-J1-PDC multicell spheroid viability
Test: Anticancer human tumor 361931-004-R-J1-PDC patient-derived colon adenocarcinoma cell line growth inhibition [PI3K]
Details: for IC50: curve of first compound; for viability, T/C: stronger effect = lower value
How it was run: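 Tumor cells grown as multi-cell spheroids with HUVEC endothelial cells and MSC fibroblast-like stroma were treated with targeted agents combined with inavolisib, alpelisib, duvelisib or copanlisib. Doses fell in half-log steps from near clinical Cmax, else from 10 microM. Viability was measured.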

[1] = second compound 0.0316 µM, first compound 0.0316 µM
[2] = second compound 0.0316 µM, first compound 0.1 µM
[3] = second compound 0.0316 µM, first compound 0.316 µM
[4] = second compound 0.0316 µM, first compound 1 µM
[5] = second compound 0.0316 µM, first compound 3.16 µM
[6] = second compound 0.0316 µM, first compound 10 µM
[7] = second compound 0.1 µM, first compound 0.0316 µM
[8] = second compound 0.1 µM, first compound 0.1 µM
[9] = second compound 0.1 µM, first compound 0.316 µM
[10] = second compound 0.1 µM, first compound 1 µM
[11] = second compound 0.1 µM, first compound 3.16 µM
[12] = second compound 0.1 µM, first compound 10 µM
[13] = second compound 0.316 µM, first compound 0.0316 µM
[14] = second compound 0.316 µM, first compound 0.1 µM
[15] = second compound 0.316 µM, first compound 0.316 µM
[16] = second compound 0.316 µM, first compound 1 µM
[17] = second compound 0.316 µM, first compound 3.16 µM
[18] = second compound 0.316 µM, first compound 10 µM
[19] = second compound 1 µM, first compound 0.0316 µM
[20] = second compound 1 µM, first compound 0.1 µM
[21] = second compound 1 µM, first compound 0.316 µM
[22] = second compound 1 µM, first compound 1 µM
[23] = second compound 1 µM, first compound 3.16 µM
[24] = second compound 1 µM, first compound 10 µM
[25] = second compound 3.16 µM, first compound 0.0316 µM
[26] = second compound 3.16 µM, first compound 0.1 µM
[27] = second compound 3.16 µM, first compound 0.316 µM
[28] = second compound 3.16 µM, first compound 1 µM
[29] = second compound 3.16 µM, first compound 3.16 µM
[30] = second compound 3.16 µM, first compound 10 µM
[31] = second compound 10 µM, first compound 0.0316 µM
[32] = second compound 10 µM, first compound 0.1 µM
[33] = second compound 10 µM, first compound 0.316 µM
[34] = second compound 10 µM, first compound 1 µM
[35] = second compound 10 µM, first compound 3.16 µM
[36] = second compound 10 µM, first compound 10 µM
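Note: spheroids exposed to agents for seven days before readout.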

IC50 (second compound 0.0316 µM): > 10 µM | IC50 (second compound 0.1 µM): > 10 µM | IC50 (second compound 0.316 µM): > 10 µM | IC50 (second compound 1 µM): > 10 µM | IC50 (second compound 3.16 µM): > 10 µM | IC50 (second compound 10 µM): > 10 µM
Structure (SMILES): C=CC(=O)N1CCN(c2nc(=O)n(-c3c(C)ccnc3C(C)C)c3nc(-c4c(O)cccc4F)c(F)cc23)C(C)C1 (centres undefined) + CC(Nc1ncnc2nc[nH]c12)c1cc2cccc(Cl)c2c(=O)n1-c1ccccc1
viability, T/C [1]: 102% | viability, T/C [2]: 102% | viability, T/C [3]: 104% | viability, T/C [4]: 104% | viability, T/C [5]: 102% | viability, T/C [6]: 99.3% | viability, T/C [7]: 100% | viability, T/C [8]: 95.8% | viability, T/C [9]: 103% | viability, T/C [10]: 111% | viability, T/C [11]: 104% | viability, T/C [12]: 92.5% | viability, T/C [13]: 105% | viability, T/C [14]: 108% | viability, T/C [15]: 103% | viability, T/C [16]: 98.3% | viability, T/C [17]: 107% | viability, T/C [18]: 86.8% | viability, T/C [19]: 98.7% | viability, T/C [20]: 109% | viability, T/C [21]: 103% | viability, T/C [22]: 106% | viability, T/C [23]: 102% | viability, T/C [24]: 90.5% | viability, T/C [25]: 100% | viability, T/C [26]: 103% | viability, T/C [27]: 99.9% | viability, T/C [28]: 104% | viability, T/C [29]: 106% | viability, T/C [30]: 89.9% | viability, T/C [31]: 104% | viability, T/C [32]: 108% | viability, T/C [33]: 98.2% | viability, T/C [34]: 100% | viability, T/C [35]: 101% | viability, T/C [36]: 93.6%

IC50 (second compound 0.0316 µM): > 10 µM | IC50 (second compound 0.1 µM): > 10 µM | IC50 (second compound 0.316 µM): > 10 µM | IC50 (second compound 1 µM): > 10 µM | IC50 (second compound 3.16 µM): > 10 µM | IC50 (second compound 10 µM): > 10 µM
Structure (SMILES): CC(Cn1ccc(-c2ccc(C#N)c(Cl)c2)n1)NC(=O)c1cc(C(C)O)[nH]n1 (centres undefined) + CC(Nc1ncnc2nc[nH]c12)c1cc2cccc(Cl)c2c(=O)n1-c1ccccc1
viability, T/C [1]: 102% | viability, T/C [2]: 92.6% | viability, T/C [3]: 96.7% | viability, T/C [4]: 90% | viability, T/C [5]: 104% | viability, T/C [6]: 102% | viability, T/C [7]: 105% | viability, T/C [8]: 96.9% | viability, T/C [9]: 103% | viability, T/C [10]: 101% | viability, T/C [11]: 106% | viability, T/C [12]: 99.4% | viability, T/C [13]: 102% | viability, T/C [14]: 103% | viability, T/C [15]: 104% | viability, T/C [16]: 103% | viability, T/C [17]: 108% | viability, T/C [18]: 97.4% | viability, T/C [19]: 99.5% | viability, T/C [20]: 102% | viability, T/C [21]: 96.4% | viability, T/C [22]: 98% | viability, T/C [23]: 100% | viability, T/C [24]: 106% | viability, T/C [25]: 98.8% | viability, T/C [26]: 104% | viability, T/C [27]: 100% | viability, T/C [28]: 104% | viability, T/C [29]: 103% | viability, T/C [30]: 104% | viability, T/C [31]: 105% | viability, T/C [32]: 95.9% | viability, T/C [33]: 100% | viability, T/C [34]: 99% | viability, T/C [35]: 109% | viability, T/C [36]: 98.7%
